As a reminder, the bioavailability is dose-corrected exposure relative to a reference, in per cent. Low values mean poor availability, high ones good availability. What is called Kb is the affinity of an antagonist, worked out from how it opposes an agonist. High values mean a less potent antagonist, low ones a more potent antagonist.

A short description of data set [1]: Oral bioavailability in rat. The class given is ADME, organism-based. The following applies: in vivo.
Data set [2] relates to Rattus norvegicus. Nature of the data set: Oral activity determined using the salt-deplete spontaneously hypertensive rat (SHR) model, expressed as percent of maximum decrease in mean arterial pressure at a oral dose of 10 umol/kg for 0-6 hr. Type of data set: functional, Artery.
In data set [3] the test system is Rattus norvegicus. Nature of the data set: Oral activity determined using the salt-deplete spontaneously hypertensive rat (SHR) model, expressed as percent of maximum decrease in mean arterial pressure at a oral dose of 10 umol/kg for 12-18 hr. Type of data set: functional, Artery.
The subject of data set [4] is Rattus norvegicus. The experiment in a line: Oral activity determined using the salt-deplete spontaneously hypertensive rat (SHR) model, expressed as percent of maximum decrease in mean arterial pressure at a oral dose of 10 umol/kg for 18-24 hr. Type of data set: functional, Artery.
For data set [5], the system named is Rattus norvegicus. Nature of the data set: Oral activity determined using the salt-deplete spontaneously hypertensive rat (SHR) model, expressed as percent of maximum decrease in mean arterial pressure at a oral dose of 10 umol/kg for 6-12 hr. The class given is functional, Artery.
The test system of data set [6] is Rattus norvegicus. The experiment in a line: Tested for fall in blood pressure on seventh day after dosing. The class given is functional.
Data set [7] concerns Rattus norvegicus. Nature of the data set: Oral activity determined using the salt-deplete spontaneously hypertensive rat (SHR) model, expressed as percent of maximum decrease in mean arterial pressure at a oral dose of 30 umol/kg for 0-6 hr. The class given is functional, Artery.
Data set [8] deals with Rattus norvegicus. Nature of the data set: Oral activity determined using the salt-deplete spontaneously hypertensive rat (SHR) model, expressed as percent of maximum decrease in mean arterial pressure at a oral dose of 30 umol/kg for 12-18 hr. The class given is functional, Artery.
Data set [9] concerns Rattus norvegicus. The experiment in a line: Oral activity determined using the salt-deplete spontaneously hypertensive rat (SHR) model, expressed as percent of maximum decrease in mean arterial pressure at a oral dose of 30 umol/kg for 18-24 hr. The class given is functional, Artery.
In data set [10] the test system is Rattus norvegicus. The experiment in a line: Oral activity determined using the salt-deplete spontaneously hypertensive rat (SHR) model, expressed as percent of maximum decrease in mean arterial pressure at a oral dose of 30 umol/kg for 6-12 hr. The class given is functional, Artery.
The species named for the next data set is Oryctolagus cuniculus. The experiment in a line: Functional antagonism was measured by the ability of a single concentration of compound to block angiotensin II induced contractions in rabbit aortic smooth muscle strips. The following applies: Aorta.

Take `CC(C)C(OC(=O)C(C)(C)C)n1nnc(-c2ccccc2-c2ccc(Oc3c(C4CC4)nc4ccccc4c3C(=O)O)cc2)n1` (stereo not given): in [1], the bioavailability was found to be 39%. In addition, the Decrease is listed as 17% in the data set on Rattus norvegicus [2], 20% in the data set with Rattus norvegicus [3], 19% in the data set with Rattus norvegicus [4] and 17% in the data set on Rattus norvegicus [5].

`CCCCc1nc(Cl)c(CO)n1Cc1ccc(-c2ccccc2-c2nnn[nH]2)cc1` [LOSARTAN]: in the data set with Rattus norvegicus [6], the Blood pressure is reported as 20 mmHg.

For `Cc1oc(=O)oc1COC(=O)c1c(Oc2ccc(-c3ccccc3-c3nn[nH]n3)cc2)c(C2CC2)nc2ccccc12`, the bioavailability in data set [1] amounted to 27%. The same molecule registered a Blood pressure with Rattus norvegicus [6] of 45 mmHg. The Decrease in the data set with Rattus norvegicus [2] is on record as 19%; in the data set with Rattus norvegicus [3], 23%; with Rattus norvegicus [4] it was 24%; in the data set on Rattus norvegicus [5] it was 19%.

In the case of `CCOC(=O)c1c(Oc2ccc(-c3ccccc3-c3nn[nH]n3)cc2)c(C2CC2)nc2ccccc12`, the Decrease is recorded as 17% in the data set on Rattus norvegicus [7], 25% with Rattus norvegicus [8], 26% in the data set on Rattus norvegicus [9] and 19% in the data set with Rattus norvegicus [10].

For the molecule `CCC(=O)OC(OC(=O)c1c(Oc2ccc(-c3ccccc3-c3nn[nH]n3)cc2)c(C2CC2)nc2ccccc12)C(C)C` (stereo not given), the Decrease worked out at 7% in the data set with Rattus norvegicus [2], 9% with Rattus norvegicus [3], 19% in the data set with Rattus norvegicus [4] and 5% with Rattus norvegicus [5].

Regarding `O=C(O)c1c(Oc2ccc(-c3ccccc3-c3nn[nH]n3)cc2)c(C2CC2)nc2ccccc12`, in the data set listed under Oryctolagus cuniculus, the Kb turned out to be 0.061 nM. Further, the Decrease turned out to be 14% with Rattus norvegicus [7], 21% with Rattus norvegicus [8], 23% in the data set with Rattus norvegicus [9] and 14% with Rattus norvegicus [10].

(Values after ChEMBL document CHEMBL1127775, “Orally active prodrugs of quinoline-4-carboxylic acid angiotensin II receptor antagonists” (Bioorg Med Chem Lett, 1994).)
